Test results: patent publication US9790253B2, “OSW-1 analogs and conjugates, and uses thereof” (priority 2011, dated 2017)
Like-named read-outs stand apart in the source and are kept apart here.

What was measured:
[1] = biological target: OSBP (oxysterol-binding protein) (Homo sapiens, UniProt P22059); details: cited from earlier work
CHO-K1 cells = experiment: Sphingomyelin biosynthesis, [3H]-serine pulse-labeling, CHO-K1; assay type: cell-based
Method: (§1) Sphingomyelin is biosynthesized from ceramide at the Golgi apparatus. Ceramide is primarily transported from the ER to the Golgi by ceramide transport protein (CERT), and the transport activity of CERT is both OSBP1- and VAP-A dependent. […] To determine whether the ORPphilins affect sphingomyelin synthesis, pulse-labeling with [^3H]-serine was performed in CHO-K1 and HCT-116 cells and the amount of tritium incorporated into sphingomyelin and other lipids then measured. Cells were treated with vehicle or compound for 6 h, and in the last 2 h the cells were pulsed with 10 μCi [^3H]-serine. Lipids were extracted and isolated by TLC, and label incorporation into sphingomyelin was measured by scintillation counting.

HL-60 = details: cited from earlier work
U87-MG = details: cited from earlier work
HCT-116 p21^−/− cells = experiment: cells; details: HCT-116 p21-/-
Method: Cell viability assay. Cells were plated into 96-well plates in 75 μL of media. After 24 h, a time-zero plate was produced by adding 25 μL of media and 20 μL of CellTiter-Blue® (Promega) to the wells, followed by incubation at 37° C. for 90 min. Fluorescence (544 nm excitation; 590 nm emission) was detected using a SPECTRAmax® Gemini XS to establish cell viability at time of dosing. Then, compounds were serially diluted in media and delivered to the cells as 4× solutions in 25 μL of media. At either 48 h or 72 h, CellTiter-Blue® was added and the fluorescence was recorded as described above.
Tasdemir et al. (2002) J Nat Prod 65:210-4. GI50-values of the compounds were determined in HCT-116 p21^+/+ (wt) and p21^−/− cells after 48 h using a resazurin redox dye to measure cell viability.
Methods are described above in the General Methods section.

[2] = tested on: CLL (chronic lymphocytic leukemia) cells taken from patients; details: read-out: GI50 fludarabine-refractory CLL cells; cited from earlier work
NCI-60 = details: read-out: average GI50 against the NCI-60; cited from earlier work
HCT-116 cells = experiment: [3H]-serine pulse-labeling, HCT-116; assay type: cell-based, human; details: range of concentrations
Method: as §1

normal lymphocytes = details: cited from earlier work
A549 cells = experiment: cells; assay type: cell-based, human; details: A549 cells, 48 h; read-out: GI50 (nM) 48 h
Text: Methods are essentially as described above in the General Methods section in connection with assays using HCT-116 cells.

[3] = tested on: glioblastoma and leukemia cells; details: cited from earlier work
normal astrocytes = details: cited from earlier work
P388 tumor cells = details: single i.p. treatment of 0.01 mg/kg; cited from earlier work
tumor xenograft = details: i.p. 9.3 mg/kg (Q2Dx4); cited from earlier work

Chain of OSBP (oxysterol-binding protein) (P22059 whole entry, species assumed): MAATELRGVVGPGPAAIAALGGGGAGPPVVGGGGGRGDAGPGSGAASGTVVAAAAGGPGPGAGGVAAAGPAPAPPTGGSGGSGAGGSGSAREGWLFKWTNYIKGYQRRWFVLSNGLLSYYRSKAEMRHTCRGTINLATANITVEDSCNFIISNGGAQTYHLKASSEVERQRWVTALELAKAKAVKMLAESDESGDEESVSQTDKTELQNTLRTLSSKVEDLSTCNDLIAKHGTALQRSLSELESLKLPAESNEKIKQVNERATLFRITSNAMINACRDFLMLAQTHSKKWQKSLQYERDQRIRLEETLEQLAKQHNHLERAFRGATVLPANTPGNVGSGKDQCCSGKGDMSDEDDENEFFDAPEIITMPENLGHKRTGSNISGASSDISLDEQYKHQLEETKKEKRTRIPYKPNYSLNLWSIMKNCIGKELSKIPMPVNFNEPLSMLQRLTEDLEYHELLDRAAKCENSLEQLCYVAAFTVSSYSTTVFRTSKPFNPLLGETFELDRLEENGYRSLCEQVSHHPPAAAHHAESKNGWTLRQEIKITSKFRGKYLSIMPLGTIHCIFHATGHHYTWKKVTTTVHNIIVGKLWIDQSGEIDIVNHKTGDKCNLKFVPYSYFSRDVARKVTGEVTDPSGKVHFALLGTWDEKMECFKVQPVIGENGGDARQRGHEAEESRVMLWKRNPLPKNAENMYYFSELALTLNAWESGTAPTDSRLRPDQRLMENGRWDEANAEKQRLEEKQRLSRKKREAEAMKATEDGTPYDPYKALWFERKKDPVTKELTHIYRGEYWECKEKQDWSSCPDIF

Row | Molecule | Kd [1] [nM] | increase in the biosynthesis of sphingomyelin (SM) (CHO-K1 cells; 5 μM, 6 h) | SM biosynthesis at GI90 dose (CHO-K1 cells; 15 μM) | GI50 (HL-60) [nM] | times more active in leukemia cells versus normal lymphocytes (HL-60) [times] | GI50 (U87-MG) [nM] | selectivity, malignant brain tumor cells versus normal astrocytes (U87-MG) [fold] | GI50 (HCT-116 p21^−/− cells; read-out: GI50 (nM) 48 h p21^−/−, 48 h) [nM] | GI50 (HCT-116 p21^−/− cells; read-out: GI50 (nM) 72 h p21^−/−, 72 h) [nM] | GI50 [2] [nM] | GI50 (NCI-60) [nM] | ceramide labeling (HCT-116 cells) | GI50 (normal lymphocytes) [nM] | GI50 (A549 cells) [nM] | fold more cytotoxic toward glioblastoma and leukemia cells than non-transformed astrocytes and lymphocytes [3] | GI50 (normal astrocytes) [nM] | increased life span (P388 tumor cells) [%] | toxicity (tumor xenograft) | tumor volume (tumor xenograft)
1 | C[C@H](CCCC(C)(C)O)[C@H]1CC[C@H]2[C@@H]3CC=C4C[C@@H](O)CC[C@]4(C)[C@H]3CC[C@]12C [Compound 25-OHC, 25-hydroxycholesterol] | 37 | ca. 4 fold | robust stimulation |  |  |  |  |  |  |  |  |  |  |  |  |  |  |  | 
2 | COc1ccc(C(=O)O[C@H]2[C@H](O[C@@H]3[C@@H](OC(C)=O)[C@H](O[C@H]4C[C@H]5[C@@H]6CC=C7C[C@@H](O)CC[C@]7(C)[C@H]6CC[C@]5(C)[C@@]4(O)[C@H](C)C(=O)CCC(C)C)OC[C@@H]3O)OC[C@@H](O)[C@@H]2O)cc1 [OSW-1] |  |  |  | 0.04 | 40 | 0.047 | 150 | 0.2 ± 0.03 | 0.04 | 0.3 | 0.78 | no effect | 1.73 | 0.5 ± 0.24 | 30-150 fold | 7.13 | 59 |  | 
3 | schweinfurthin A |  |  |  |  |  |  |  |  |  |  | 360 |  |  |  |  |  |  | without overt toxicity | reduction in tumor volume compared to vehicle-treated controls
